What was measured:
[1] = tested on: PC3 human prostate cancer cells; test: Example S: in vitro anticancer screen, PC-3 cells, Wst1; assay type: cell-based; conditions: Homo sapiens, PC-3, approximately 20 hours, Wst1, read-out: PC-3, percent of cancer cell survival relative to vehicle treated cells
Summary of the method: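 PC-3 cells, 2×10^4 cells/well, exposed ~20 h to vehicle or compound at 0.4, 0.5 or 2.5 μM as specified per compound. Wst1 dye added for 2 h; absorbance 450 nm (reference 630 nm), triplicates. Values are percent cell survival versus vehicle-treated cells.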

[2] = tested on: THP-1 cells; test: Example D: LPS-triggered THP-1 cell death assay, acute/5-hour and chronic/48-hour; assay type: cell-based, Human; conditions: for Viable cell percent change, Chronic/48-hour, Mean: 10 ng/ml LPS, 0.1 μM test compound
Procedure: Compounds of the invention were tested at 0.1 μM versus AC in the LPS-triggered THP-1 cell death assay. Both acute/5-hour and chronic/48-hour phases of cell death were assessed. Compounds were screened in batches with DMSO as the negative control and AC as the high activity control.

[3] = tested on: Candida albicans strain 3153; test: Example H: Candida albicans growth inhibition (OD 600 nm); assay type: cell-based; conditions: Candida albicans, 3153, read-out: IC50 (uM) (50% inhibition of fungal growth), 24 hrs at 30° C., YPD, XLfit
Procedure: A single colony of Candida Albicans was grown in 50 ml YPD broth overnight (19 hr). The cells were washed with PBS and 3.5×10^4 CFU/ml of C. Albicans (144 μl/well) in YPD medium were plated in 96 well plates. Test compounds were then added to each well with concentration ranged from 5 to 40 μM as final concentrations. The plates were incubated at 30° C. overnight (24 hrs) and OD at 600 nm was read at the end of incubation as an index of yeast cell density.
Part-I: Preparation of Candida albicans Cells • 1. One day prior to the inoculum preparation, pick a single colony of Candida albicans strain 3153 (lot #61794) from the Sabouraud Dextrose Agar plate using the inoculum loop and inoculate into a 250 mL flask containing 50 ml of YPD growth medium • 2. Incubate at 30° C. with shaking at 150 rpm for at least 18 hours with loosened lid to allow air in and facilitate growth. • 3. Examine an aliquot of the culture under a microscope for Candida cell morphology and lack of bacterial contamination; >95% of Candida cells should be blastoconidia. • 4. Transfer 25 ml the overnight culture into a 50-ml plastic disposable centrifuge tube, and centrifuge at 1000×g for 20 min. • 5. Discard the supernatant and wash the pellet with 4 ml of PBS at three times. Vortex and centrifuge, 1000×g for 10 min. • 6. After the third wash, dispense the pellet with 2 ml PBS and vortex. • 7. Make three 1:10 serial dilutions in sterile PBS (10^−1, 10^−2, 10^−3) from the 2 ml cell suspension using 15 ml culture tubes. The final volume in each tube is 5 ml. • 8. […] Make a 1:4 dilution in YPD medium from the 50-fold dilution of 10^−3 cell suspension for testing compounds. • The final C. albicans cell concentration for the test: 3.5×10^4 CFU/ml • 10. Plated 144 ul/well of the above dilution of cell on 96-well plates. Part-II: C. Albicans Growth Inhibition Testing with Compounds • 1. From 10 mM DMSO stock solutions, make serial dilutions of compounds to 0.13, 0.25, 0.40, 0.55, 0.75 and 1.0 mM solutions • 2. Add 6 ul each of diluted compound solutions per well in duplicates. The final concentrations were 0, 5, 10, 16, 22, 30 and 40 micromolar. • 3. Incubated all plates at 30 C for overnight (˜24 hours). • 4. Read absorbance at OD600 for each plate. • 5. Calculate the % inhibition of each compound against the DMSO treated cell.

[4] = tested on: PC-3 prostate cancer cells; test: Example T: sensitisation of PC-3 cells to doxorubicin, oxaliplatin, paclitaxel or vincristine, Wst1; assay type: cell-based, human; conditions: PC-3 cells, 72 hours; for viability at 2.5 µM / viability at 0.4 µM / viability at 1.5 µM / viability at 0.5 µM: Homo sapiens, Wst1, vehicle = 100, read-out: No Chemo: percent cell survival; for viability at 2.5 µM: compound 2.5 μM alone; for Doxorubicin 3.5 μM: percent cell survival / Oxaliplatin 100 μM: percent cell survival / Paclitaxel 50 μM: percent cell survival / Vincristine 100 nM: percent cell survival: chemotherapy agent alone normalized to 100%; for viability at 0.4 µM: compound 0.4 μM alone; for viability at 1.5 µM: compound 1.5 μM alone; for viability at 0.5 µM: compound 0.5 μM alone
[5] = tested on: 4T1 murine breast cancer cells; test: Example S: in vitro anticancer screen, 4T1 cells, Wst1; assay type: cell-based, mouse; conditions: Mus musculus, 4T1, 18 h, 18 hr, Wst1; for viability at 1 µM: read-out: 4T1 1 μM, percent of cancer cell survival relative to vehicle treated cells; for viability at 5 µM: read-out: 4T1 5 μM, percent of cancer cell survival relative to vehicle treated cells
Summary of the method: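 4T1 cells seeded at 1×10^4/well were exposed to compound at 1 μM or 5 μM for 18 hr after plating. Wst1 tetrazolium dye was then added for about 2 hr and absorbance read at 450 nm (reference 630 nm). Values are percent survival relative to vehicle-treated cells.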

[6] = compound 2.5 μM + doxorubicin 3.5 μM
[7] = compound 2.5 μM + oxaliplatin 100 μM
[8] = compound 2.5 μM + paclitaxel 50 μM
[9] = compound 2.5 μM + vincristine 100 nM
[10] = compound 0.4 μM + doxorubicin 3.5 μM
[11] = compound 0.4 μM + oxaliplatin 100 μM
[12] = compound 0.4 μM + paclitaxel 50 μM
[13] = compound 0.4 μM + vincristine 100 nM
[14] = compound 1.5 μM + doxorubicin 3.5 μM
[15] = compound 1.5 μM + oxaliplatin 100 μM
[16] = compound 1.5 μM + paclitaxel 50 μM
[17] = compound 1.5 μM + vincristine 100 nM
[18] = compound 0.5 μM + doxorubicin 3.5 μM
[19] = compound 0.5 μM + oxaliplatin 100 μM
[20] = compound 0.5 μM + paclitaxel 50 μM
[21] = compound 0.5 μM + vincristine 100 nM

Compound: CCCCOCCCCCCCCn1cnc2cnc3ccccc3c21 [BQ, 1-(8-Butoxyoctyl)-1H-imidazo[4,5-c]quinoline]
- viability at 2.5 µM [1]: 21.4%
- Viable cell percent change, Chronic/48-hour, Mean [2]: 13.70%
- IC50 [3]: 51.7 µM
- viability at 2.5 µM [4]: 21.4%
- Doxorubicin 3.5 μM: percent cell survival [4, 6]: 48.5%
- Oxaliplatin 100 μM: percent cell survival [4, 7]: 25.1%
- Paclitaxel 50 μM: percent cell survival [4, 8]: 26.9%
- Vincristine 100 nM: percent cell survival [4, 9]: 21.4%

Compound: CCCCCCOCCCCCCCCNc1ncnc2ccccc12 [EW, N-[8-(Hexyloxy)octyl]quinazolin-4-amine]
- viability at 1 µM [5]: 21.2%
- viability at 5 µM [5]: 18.9%
- viability at 0.4 µM [1]: 14.1%
- activity relative to AC in the LPS-triggered THP-1 cell death assay, in words ([2]; 0.1 μM, 5-hour and 48-hour time points): equivalent activity to AC at both the 5-hour and 48-hour time points
- viability at 0.4 µM [4]: 14.1%
- Doxorubicin 3.5 μM: percent cell survival [4, 10]: 20%
- Oxaliplatin 100 μM: percent cell survival [4, 11]: 16.6%
- Paclitaxel 50 μM: percent cell survival [4, 12]: 21.9%
- Vincristine 100 nM: percent cell survival [4, 13]: 14.8%

Compound: CCCCCCCCCCCCOCCn1cnc2cnc3ccccc3c21 [FG, 1-[2-(Dodecyloxy)ethyl]-1H-imidazo[4,5-c]quinoline]
- viability at 1 µM [5]: 85.7%
- viability at 5 µM [5]: 25.5%
- viability at 1.5 µM [1]: 39.2%
- Viable cell percent change, Chronic/48-hour, Mean [2]: 1.15%
- viability at 1.5 µM [4]: 39.2%
- Doxorubicin 3.5 μM: percent cell survival [4, 14]: 65.7%
- Oxaliplatin 100 μM: percent cell survival [4, 15]: 85.5%
- Paclitaxel 50 μM: percent cell survival [4, 16]: 47.2%
- Vincristine 100 nM: percent cell survival [4, 17]: 41%

Compound: CCCCCCCCOCCCCCCn1cnc2cnc3ccccc3c21 [FI, 1-[6-(Octyloxy)hexyl]-1H-imidazo[4,5-c]quinoline]
- viability at 1 µM [5]: 26.5%
- viability at 5 µM [5]: 26.7%
- viability at 0.5 µM [1]: 35.2%
- Viable cell percent change, Chronic/48-hour, Mean [2]: 12.70%
- viability at 0.5 µM [4]: 35.2%
- Doxorubicin 3.5 μM: percent cell survival [4, 18]: 79.8%
- Oxaliplatin 100 μM: percent cell survival [4, 19]: 91.4%
- Paclitaxel 50 μM: percent cell survival [4, 20]: 84%
- Vincristine 100 nM: percent cell survival [4, 21]: 73.7%

Compound: CCCCCCOCCCCCCCCCn1cnc2cnc3ccccc3c21 [FJ, 1-[9-(Hexyloxy)nonyl]-1H-imidazo[4,5-c]quinoline]
- viability at 1 µM [5]: 38.1%
- viability at 5 µM [5]: 24.5%
- viability at 0.5 µM [1]: 38.6%
- Viable cell percent change, Chronic/48-hour, Mean [2]: 27.44%
- viability at 0.5 µM [4]: 38.6%
- Doxorubicin 3.5 μM: percent cell survival [4, 18]: 75.1%
- Oxaliplatin 100 μM: percent cell survival [4, 19]: 93%
- Paclitaxel 50 μM: percent cell survival [4, 20]: 97.3%
- Vincristine 100 nM: percent cell survival [4, 21]: 82.2%

Compound: CCCCOCCCCCCCCCCn1cnc2cnc3ccccc3c21 [FK, 1-(10-Butoxydecyl)-1H-imidazo[4,5-c]quinoline]
- viability at 1 µM [5]: 23.6%
- viability at 5 µM [5]: 15.6%
- viability at 0.5 µM [1]: 35.5%
- Viable cell percent change, Chronic/48-hour, Mean [2]: 16.57%
- viability at 0.5 µM [4]: 35.5%
- Doxorubicin 3.5 μM: percent cell survival [4, 18]: 47.4%
- Oxaliplatin 100 μM: percent cell survival [4, 19]: 62%
- Paclitaxel 50 μM: percent cell survival [4, 20]: 18%
- Vincristine 100 nM: percent cell survival [4, 21]: 39%

Compound: COCCCCCCCCNc1cc[n+](C)cc1.[I-] [FL, 4-(8-Methoxyoctylamino)-1-methylpyridinium iodide]
- viability at 1 µM [5]: 27.7%
- viability at 5 µM [5]: 21.4%
- viability at 0.4 µM [1]: 41.2%
- Viable cell percent change, Chronic/48-hour, Mean [2]: 38.59%
- viability at 0.4 µM [4]: 41.2%
- Doxorubicin 3.5 μM: percent cell survival [4, 10]: 81.3%
- Oxaliplatin 100 μM: percent cell survival [4, 11]: 87.9%
- Paclitaxel 50 μM: percent cell survival [4, 12]: 92.8%
- Vincristine 100 nM: percent cell survival [4, 13]: 69.7%

Compound: CCCCCCOCCCCCCCCNc1cccc2cnccc12 [FT, N-[8-(Hexyloxy)octyl]isoquinolin-5-amine]
- viability at 1 µM [5]: 113%
- viability at 5 µM [5]: 27.6%
- viability at 2.5 µM [1]: 41.1%
- Viable cell percent change, Chronic/48-hour, Mean [2]: 3.59%
- viability at 2.5 µM [4]: 41.1%
- Doxorubicin 3.5 μM: percent cell survival [4, 6]: 74.4%
- Oxaliplatin 100 μM: percent cell survival [4, 7]: 94.2%
- Paclitaxel 50 μM: percent cell survival [4, 8]: 85.2%
- Vincristine 100 nM: percent cell survival [4, 9]: 78.3%

Compound: CCCCCCCCCCOCCCCn1cnc2cnc3ccccc3c21 [GA, 1-[4-(Decyloxy)butyl]-1H-imidazo[4,5-c]quinoline]
- viability at 1 µM [5]: 97.1%
- viability at 5 µM [5]: 35.5%
- viability at 1.5 µM [1]: 41.3%
- Viable cell percent change, Chronic/48-hour, Mean [2]: 16.51%
- viability at 1.5 µM [4]: 41.3%
- Doxorubicin 3.5 μM: percent cell survival [4, 14]: 82.2%
- Oxaliplatin 100 μM: percent cell survival [4, 15]: 91.8%
- Paclitaxel 50 μM: percent cell survival [4, 16]: 109.2%
- Vincristine 100 nM: percent cell survival [4, 17]: 84.2%

Compound: CCCCCCOCCCCCCCCn1cnc2cnc3ccccc3c21 [GB, 1-[8-(Hexyloxy)octyl]-1H-imidazo[4,5-c]quinoline]
- viability at 1 µM [5]: 97%
- viability at 5 µM [5]: 22.6%
- viability at 1.5 µM [1]: 36.4%
- Viable cell percent change, Chronic/48-hour, Mean [2]: 19.29%
- viability at 1.5 µM [4]: 36.4%
- Doxorubicin 3.5 μM: percent cell survival [4, 14]: 52.8%
- Oxaliplatin 100 μM: percent cell survival [4, 15]: 76.2%
- Paclitaxel 50 μM: percent cell survival [4, 16]: 24%
- Vincristine 100 nM: percent cell survival [4, 17]: 38.8%

Compound: CCCCCCOCCCOCCCCCn1cnc2cnc3ccccc3c21 [GC, 1-{5-[3-(Hexyloxy)propoxy]pentyl}-1H-imidazo[4,5-c]quinoline]
- viability at 1 µM [5]: 84.8%
- viability at 5 µM [5]: 21.1%
- viability at 2.5 µM [1]: 19.8%
- Viable cell percent change, Chronic/48-hour, Mean [2]: 19.30%
- viability at 2.5 µM [4]: 19.8%
- Doxorubicin 3.5 μM: percent cell survival [4, 6]: 59.5%
- Oxaliplatin 100 μM: percent cell survival [4, 7]: 63.2%
- Paclitaxel 50 μM: percent cell survival [4, 8]: 30.3%
- Vincristine 100 nM: percent cell survival [4, 9]: 26.4%

From patent US20250034139A1, “AMINE COMPOUNDS HAVING ANTI-INFLAMMATORY, ANTIFUNGAL, ANTIPARASITIC, AND ANTICANCER ACTIVITY” (PHARMA CINQ, LLC, priority 2013, published 2025)
